Experiments:
DGAT2 [1] = test: Inhibitory activity on the target gene DGAT2 in non-naive Cynomolgus macaque (Example 10, liver biopsy qPCR); assay type: in vivo
Protocol: The in-vivo experimental designs for subcutaneous injection in non-naive Cynomolgus macaque, the administration and the sample collection method were shown in the table below.
The day of administration to non-naive Cynomolgus macaque was defined as day 1, the day before it was day 0, the day after it was day 2, and so on. Each group had 2 animals. On days 1, 4, 8, 15, 22, 29, 36, 43, 50, and 57, the animals in Groups 1 and 2 were injected with the solvent or 4 mg/kg (0.5mL/kg) of the positive reference compound. On days 1 and 29, the animals in Groups 3 to 7 were injected subcutaneously with 0.5 mL/kg of the test compound.
On day 0 (0 h) before administration by SC, and days 7, 15, 28, 57, and 99 after administration, the liver sample was collected. Collection method: The animals was fasted for 12-16 hrs before sample collection. Collection of liver biopsy tissue: The collection process would be operated and recorded according to the SOP of the research institution. The location of the liver was determined by B ultrasound scan, the right liver was mainly used, and the gallbladder and major blood vessels were avoided. The biopsy needle was inserted under the guidance of the B-ultrasound probe. Guided by the image on the B-ultrasound screen, the needle entered the liver away from the gallbladder and major blood vessels, and the materials were sampled by puncture. After biopsy, the biopsy needle was withdrawn and the samples were collected. The obtained samples were immediately immersed in PBS with RNAlater®, and allowed to stand overnight at 4°C. Then the residual liquid was sucked off, and the remainder was stored at -80°C or below until it was transported in the presence of dry ice and detected.
Trizol was homogenized by Qiagen Tissue Lyser II at 26 Hz for 2 min and lyzed at room temperature for 5 min. 1 mL of the supernatant was taken, added to 200 uL of chloroform, shaken for 15 s, allowed to stand for 3 min, and centrifuged. The supernatant was collected, added with an equal volume of isopropanol, and stood overnight at -20°C for precipitation. The precipitate was washed twice with 70%, and dissolved in water without RNase. The concentration of the RNA sample was determined by Nanodrop ONE and diluted to 200 ng/µL with water without RNase for reverse transcription.
The experimental steps of reverse transcription could be made reference to the instruction of HiScript® III RT SuperMix for qPCR (+gDNA wiper). Briefly, a gDNA removal mixture was prepared according to the table below. A mixture (11 µL/sample) of 4 x gDNA wiper Mix and RNase-Free ddH2O and 1000 ng RNA sample (5 µL RNA sample with a concentration of 200 ng/µL) were added to a 96-well PCR reaction plate, incubated at 42°C for 2 min, and cooled on ice. 4 µL 5 x HiScript III qRT SuperMix and the DNA removed product from the previous step were added to a 96-well PCR reaction plate for reverse transcription. Reaction conditions: 37°C for 15 min; and 85°C for 5 sec. The cDNA was stored at 4°C for further analysis.
The method for detecting the expression levels of DGAT2 and GAPDH genes in the liver of Cynomolgus macaque by quantitative PCR was briefly described as follows: As shown in the table below, a qPCR reaction mixture was prepared, and 2 µL of a cDNA sample diluted 2 times with RNase-free water was added for PCR reaction. Reaction conditions: 95°C for 10 min; and 40 cycles of 95°C for 15 sec, and 60°C for 1 min.
All values were normalized to the average of the group on day 0.

DGAT2 [2] = test: In-vitro inhibitory activity test on target gene DGAT2 in Huh7 cells (siRNA transfection, mRNA by qPCR); assay type: cell-based, human; settings: Table 3.3
Protocol: The test compound was prepared into a 20 µM mother liquor with PBS.
Huh7 cells. Huh7 cells were cultured in DMEM medium (Gibco article number 11965-092) containing 10% fetal bovine serum (FBS, ExCell Bio article number FSP500), 1% glutamine (GlutaMAX, Gibco article number 35050061), 1% NEAA (gibco article number 11140050), and 1% penicillin-streptomycin (HyClone article number SV30010).
Huh7 cells (2 × 10^4 cells/well) were inoculated into a 96-well plate, and siRNA was transfected into the cells while plating. […] At the same time, a compound-free control group containing RNAiMAX was set up.
24 hrs after transfection, the medium was removed and the cells were collected for RNA extraction. Total RNA was extracted by using RNeasy® 96 Kit (QIAGEN-74182) according to the instructions for use of the kit. cDNA was synthesized by using FastKing RT Kit (with gDNase) (Tiangen-KR116-02) according to the instructions.
The target cDNA was detected by qPCR, and GAPDH cDNA as an internal control was detected in parallel. 8 µL of prepared PCR reaction solution and 2 µL of sample cDNA were added into a 384 well plate. […]
The expression level of the target gene mRNA in each sample was calculated by ΔΔCt relative quantitative method. […]
GraphPad Prism software was used for plotting and analysis, and the inhibition rate was expressed as mean ± SD.

human DGAT2 = test: Non-alcoholic steatohepatitis induced by a western diet in human DGAT2 carrying mice (Example 9, liver histology scores); assay type: in vivo, mouse; settings: for Ballooning degeneration / Fibrosis score / Grade of steatosis / Lobular inflammation / NAFLD score: B6-hDGAT2 mice, western diet
Protocol: Humanized mice with B6-hDGAT2-TG target and non-alcoholic steatohepatitis model were provided by GemPharmatech LLC. On D0, subcutaneous administration and induction and feeding with western diet were started. On D29, the second injection was performed. Effective period: 8 weeks. 4 mice in one group were sacrificed at 4-week endpoint, and 4 mice in the other group were sacrificed at 8-week endpoint.
Plasma was collected every week to detect the levels of TG, Chol, HDL-C, LDL-C, ALT, and AST, and the liver was stained with HE and NASH score were obtained at the endpoint.

[3] = 3mpk subcutaneous on days 1 and 29, normalized to day 0
[4] = 10mpk subcutaneous on days 1 and 29, normalized to day 0
[5] = 3mpk, D0 and D29, 8-week endpoint
[6] = 3mpk, 4-week endpoint, mean ± SEM
[7] = 6mpk, D0 and D29, 8-week endpoint
[8] = 6mpk, 4-week endpoint, mean ± SEM

dS319: sense (invAb)*acaccauaGfAfCfuauuugcuua[L96]; anti-sense Vpu*Af*a*GfcAfaauagUfcUfaUfgGfuGf* u
Average inhibition rate, % (D28) (DGAT2 [1]; [3]): 86.6% | Average inhibition rate, % (D56) (DGAT2 [1]; [3]): 91.1% | Average inhibition rate, % (D99) (DGAT2 [1]; [3]): 72.2% | Average inhibition rate, % (D28) (DGAT2 [1]; [4]): 96.0% | Average inhibition rate, % (D56) (DGAT2 [1]; [4]): 97.9% | Average inhibition rate, % (D99) (DGAT2 [1]; [4]): 89.1% | IC50 (DGAT2 [2]): 0.0163 nM | Ballooning degeneration (human DGAT2; [5]): 2.0±0.0 | Fibrosis score (human DGAT2; [5]): 0.9±0.1 | Grade of steatosis (human DGAT2; [5]): 1.0±0.0 | Lobular inflammation (human DGAT2; [5]): 1.8±0.2 | NAFLD score (human DGAT2; [5]): 4.8±0.2 | Ballooning degeneration (human DGAT2; [6]): 2.0±0.0 | Fibrosis score (human DGAT2; [6]): 0.5±0.1 | Grade of steatosis (human DGAT2; [6]): 0.7±0.1 | Lobular inflammation (human DGAT2; [6]): 2.2±0.1 | NAFLD score (human DGAT2; [6]): 4.9±0.2 | Ballooning degeneration (human DGAT2; [7]): 1.3±0.1 | Fibrosis score (human DGAT2; [7]): 0.8±0.2 | Grade of steatosis (human DGAT2; [7]): 1.1±0.1 | Lobular inflammation (human DGAT2; [7]): 2.0±0.1 | NAFLD score (human DGAT2; [7]): 4.3±0.0 | Ballooning degeneration (human DGAT2; [8]): 1.3±0.1 | Fibrosis score (human DGAT2; [8]): 0.4±0.1 | Grade of steatosis (human DGAT2; [8]): 0.5±0.2 | Lobular inflammation (human DGAT2; [8]): 1.6±0.2 | NAFLD score (human DGAT2; [8]): 3.4±0.2 | improvement on non-alcoholic steatohepatitis (NASH) by NAFLD activity score (human DGAT2; FIG. 1 legend, hDGAT2 combined with western diet, over 4 weeks): improvement | improvement on fibrosis in non-alcoholic steatohepatitis (human DGAT2; FIG. 2 legend, hDGAT2 combined with western diet, over 4 weeks): improvement
